In article PMC10533049, “Anti-Inflammatory Halogenated Monoterpenes from the Red Alga Portieria hornemannii” (Marine Drugs, 2023):
Where two headings read alike, the source gives them in different places.

Columns and labels:
TNF-α = TNF-α expression in LPS-stimulated dendritic cells (ELISA); format: cell-based; conditions: for IC50: Dendritic cell; for Anti-inflammatory activity (result in words): LPS-stimulated dendritic cells, pro-inflammatory cytokine / TNF-α production
Method: (§1) In this study, the viability of D.C. cells was evaluated at a concentration of 100 μg/mL using a cell-counting-kit assay (CCK-8) obtained from Dojindo Molecular Technologies, Inc. (Kumamoto, Japan), which measured absorbance at a wavelength of 450 nm, following the methodology outlined by Chung et al.. The expression of the pro-inflammatory cytokine, TNF-α, in the culture supernatant was screened using the dendritic cells ELISA kit, as described in a previous study.

[1] = Viability of dendritic cells (CCK-8 assay); format: cell-based; conditions: for viability at 100 μg/mL: DCs, CCK-8, mean ± S.D., triplicate, read-out: Cell Viability (%) (DCs)
Method: as §1

[2] = system: cell lines derived from the brain, kidney, and colon; set-up: method as in PMID 1501227, PMID 9443608; conditions: cited from earlier work
[3] = read-out: Anti-Inflammatory Activity (IC50) TNF-α Expression (LPS/DCs)

IC50 (TNF-α; LPS-stimulated DCs, unit inferred, read-out: IC50, reduction of TNF-α production in LPS-stimulated dendritic cells) [µM]	SMILES	IC50 (TNF-α; [3]) [µM]	viability at 100 μg/mL [1] [%]	Anti-inflammatory activity (result in words) (TNF-α)	Cytotoxicity in NCI human tumor cell line screen (result in words) [2]	IC50 ([1]; dendritic cells (DCs), positive control, read-out: Cytotoxicity against DCs, IC50) [µM]
–	C=C[C@@](C)(Cl)[C@@H](Cl)/C=C/C(C)(Cl)C(Cl)Cl (relative stereo) [Compound 2, (3R*,4S*,5E)-3,4,7,8,8-Pentachloro-3,7-dimethyl-octa-1,5-diene]	> 100	88.8 ± 8.1	–	–	–
–	C=C[C@@](C)(Cl)[C@@H](Br)/C=C/[C@](C)(Cl)C(Cl)Cl [Compound 1, (3R,4S,5E,7S)-4-Bromo-3,7,8,8-tetrachloro-3,7-dimethyl-octa-1,5-diene]	2.5 ± 0.4	47 ± 2.1	significantly reduce the TNF-α	–	–
–	C=C[C@](C)(Cl)[C@H](Cl)/C=C/C(=C/Cl)C(Br)Br [Compound 3, (3S,4R,5E,7Z)-3,4,8-trichloro-7-dibromomethyl-3-methyl-octa-1,5,7-triene]	> 100	80.2 ± 8.3	did not show any activity	–	–
–	C=C[C@@](C)(Cl)[C@@H](Cl)/C=C/C(=C/Cl)C(Cl)Cl [Compound 4]	6.2 ± 1.1	51.1 ± 2.2	significantly reduce the TNF-α	–	–
–	C=C[C@@](C)(Cl)[C@H](Cl)/C=C/C(=C/Cl)C(Cl)Cl [Compound 5]	10.6 ± 1.3	49.1 ± 2.7	significantly reduce the TNF-α	–	–
–	C=C(Cl)[C@](Cl)(CBr)CC[C@@H](Br)C(C)(C)Cl [halomon]	–	–	–	significant differential cytotoxicity	–
23.1 ± 5.2	O=c1c(O)c(-c2ccc(O)c(O)c2)oc2cc(O)cc(O)c12 [quercetin, reference compound]	–	–	–	–	78.8 ± 7.3
